Measured values taken from patent publication US20200000840A1, “USE OF CYCLODEXTRINS TO REDUCE ENDOCYTOSIS IN MALIGNANT AND NEURODEGENERATIVE DISORDERS” (priority 2016, published 2020).
“And” between values parts separate entries of the source, which are not always exact repeats. Identical values can stand only once. “Also recorded” adds a separate entry of the source. Like-named read-outs stand apart in the source and are kept apart here. Marks after values point to notes of the source that are not given here.

Key:
rats [1] = conditions: long-term parenteral administration, 200 mg/kg; cited from earlier work
[2] = cited from earlier work
rats [3] = conditions: rat, in vivo; cited from earlier work
children with NPC = conditions: cited from earlier work
leukemia mouse models = conditions: cited from earlier work
cats = conditions: doses of 4-8 g/kg; cited from earlier work
[4] = Table 2; cited from earlier work
MCF-7 cells = assay: Wound healing / gap closure migration assay (CytoSelect CBA-120); type: cell-based, human; conditions: treated 2 hours
Protocol: (§1) Published results have shown that β-CD inhibits human MDA-MB 231 cell migration (Guerra et al. 2016). This inhibition was attributed to the ability of β-CD to “deplete cholesterol”. β-CD, however, depletes also phospholipids. […] Cells were cultured in 24-well culture plates (Cytoselect CBA-120, 0.9 mm wound healing/gap closure migration assay) for 24 hours with wound healing insert in place. […] Protocol: Warm up the 24-well plate (CBA-120, Cell BioLabs Inc.) with 0.9 mm CytoSelect Wound Healing Inserts at room temperature for 10 minutes. Using sterile forceps, orient the desired number of inserts in the plate wells with their “wound field” aligned in the same direction. Create a cell suspension containing 0.5-1.0×10^6 cells/ml in media containing 10% fetal bovine serum (FBS). Add 500 μL of cell suspension to each well by carefully inserting the pipette tip through the open end at the top of the insert. For optimal cell dispersion, add 250 μL of cell suspension to either side of the open ends at the top of the insert. Incubate cells in a cell culture incubator for 12-24 hours. Carefully remove the insert from the well to begin the wound healing assay. Use sterile forceps to grab and lift the insert slowly from the plate well. Slowly aspirate and discard the media from the wells. Wash wells with media to remove dead cells and debris. Finally, add media to wells to keep cells hydrated. Repeat wash if wells still have debris or unattached cells. When washing is complete, add media with FBS and/or compounds to continue cell culture and wound healing process. Agents that inhibit or stimulate cell migration can be added directly to the wells. Incubate cells in a cell culture incubator (2 hours) and then wash cells with PBS and then add fresh media without compounds. Incubate 12-24 hours before wash and fixing. Remove the fixation solution and add 400 μL of Cell Stain Solution to each well. Allow the stain to incubate with the cells for 15 minutes at room temperature. Aspirate and discard the solution. Carefully wash each stained well 3× with deionized water. Discard washes and allow cells to dry at room temperature. Cells that migrated into the wounded area or protruded from the border of the wound were visualized and photographed under an inverted microscope. Determine the surface area of the defined wound area: Total Surface Area=0.9 mm x length. Determine the surface area of the migrated cells into the wound area: Migrated Cell Surface Area=length of cell migration (mm)×2 x length. Percent Closure (%)=Migrated Cell Surface Area/Total Surface Area x 100.

MDA-MB-231 cells = assay: as above; type: cell-based, human; conditions: treated 2 hours
Protocol: as §1

mice, cats, one human = conditions: cats, and one human; cited from earlier work
human keratinocytes = conditions: cited from earlier work
renal cancer cells = conditions: triple combination treatment, mice implanted with renal cancer cells; cited from earlier work
[5] = tested on: transgenic mouse model of AD; conditions: cited from earlier work
[6] = tested on: MDA-MB 231 and MCF-7 human breast epithelial cell lines; assay: Wound healing assay, overall statements for both cell lines; type: cell-based; conditions: 1-4 mM
Protocol: as §1

BBB = conditions: cited from earlier work; for Transport across BBB: 2 h
rats [7] = conditions: cited from earlier work
[8] = in vivo; cited from earlier work
rats [9] = conditions: 1.000 g/kg daily; cited from earlier work
transferrin endocytosis = conditions: 10 mM; cited from earlier work
[10] = cited from earlier work; remark: listed apart in the source
rats [11] = conditions: rat, in vivo, cited from earlier work
[12] = parenteral administration; cited from earlier work
rats [13] = conditions: cited from earlier work; remark: listed apart in the source
animal studies = conditions: cited from earlier work
erythrocytes = conditions: cited from earlier work
[14] = parenteral delivery; cited from earlier work
human erythrocytes = conditions: cited from earlier work
[15] = cyclosporine eye-drops; cited from earlier work

CC(O)COC[C@H]1O[C@@H]2O[C@H]3[C@H](O)[C@@H](O)[C@@H](O[C@H]4[C@H](O)[C@@H](O)[C@@H](O[C@H]5[C@H](O)[C@@H](O)[C@@H](O[C@H]6[C@H](O)[C@@H](O)[C@@H](O[C@H]7[C@H](O)[C@@H](O)[C@@H](O[C@H]8[C@H](O)[C@@H](O)[C@@H](O[C@H]1[C@H](O)[C@H]2O)O[C@@H]8COCC(C)O)O[C@@H]7COCC(C)O)O[C@@H]6COCC(C)O)O[C@@H]5COCC(C)O)O[C@@H]4COCC(C)O)O[C@@H]3COCC(C)O (stereo partly drawn) [HPbCD, hydroxypropyl-beta-cyclodextrin]
bone mineral density (BMD) (rats [1]): decrease bone mineral density
oral absorption in rats [2]: ≤3%
toxic effects at 1 g/kg (rats [3]): did not cause adverse clinical signs
side effects (children with NPC; about 2500 mg/kg bi-weekly, over a year, two children with NPC): no discernable side effects
tolerability (children with NPC; children with NPC, doses of up to 1000 mg/kg/d): well tolerated
hearing (children with NPC; steady state IV doses of 2.5 g/kg bi-weekly for >1 yr): Hearing unaffected despite receiving steady state IV doses of
survival (leukemia mouse models): prolonged survival
hearing loss (cats): permanent hearing loss
Solubility in water [4]: >600 mg/mL
average wound closure (MCF-7 cells; 1 mM): 73.33%
wound closure (Percent Closure), replications r1-r3 (MCF-7 cells; 1 mM): 68.00% and 74.00% and 78.00%
average wound closure (MCF-7 cells; 2 mM): 48.33%
wound closure (Percent Closure), replications r1-r3 (MCF-7 cells; 2 mM): 41.00% and 48.00% and 56.00%
average wound closure (MCF-7 cells; 4 mM): 33.67%
wound closure (Percent Closure), replications r1-r3 (MCF-7 cells; 4 mM): 32.00% and 28.00% and 41.00%
average wound closure (MDA-MB-231 cells; 1 mM): 67.67%
wound closure (Percent Closure), replications r1-r3 (MDA-MB-231 cells; 1 mM): 62.00% and 68.00% and 73.00%
average wound closure (MDA-MB-231 cells; 2 mM): 56.00%
wound closure (Percent Closure), replications r1-r3 (MDA-MB-231 cells; 2 mM): 48.00% and 59.00% and 61.00%
average wound closure (MDA-MB-231 cells; 4 mM): 39.00%
wound closure (Percent Closure), replications r1-r3 (MDA-MB-231 cells; 4 mM): 48.00% and 44.00% and 25.00%
hearing loss (mice, cats, one human): risk of causing permanent hearing loss
apoptotic cell death (human keratinocytes): not apoptotic
tumor regression (renal cancer cells): necessary in triple combination treatment for tumor regression
neuroprotection [5]: neuroprotective effects
migration versus concentration [6]: migration decreased with higher concentration
BBB breakdown (BBB): 2.5 mM
acute i.v. toxicity in rats (rats [7]): 10 g/kg
Vol. of distribution (VD) [8]: 0.2 L/kg
half-life (t1/2) [8]: 1.7 to 1.9 h

OC[C@H]1O[C@@H]2O[C@H]3[C@H](O)[C@@H](O)[C@@H](O[C@H]4[C@H](O)[C@@H](O)[C@@H](O[C@H]5[C@H](O)[C@@H](O)[C@@H](O[C@H]6[C@H](O)[C@@H](O)[C@@H](O[C@H]7[C@H](O)[C@@H](O)[C@@H](O[C@H]1[C@H](O)[C@H]2O)O[C@@H]7CO)O[C@@H]6CO)O[C@@H]5CO)O[C@@H]4CO)O[C@@H]3CO [α-cyclodextrin, alpha-cyclodextrin]
nephrosis, 1, 2, 3, 4, or 7 daily doses s.c. (rats [9]): 1.000 severe nephrosis
reduction of transferrin endocytosis (transferrin endocytosis): 20%
oral absorption in rats [2]: 2-3%
i.v. toxicity, 1 g daily [10]: 1 died after 2 d
single dose i.v. LD50 (rats [11]; iv): 0.788/1.008 * g/kg
LD50 (rats [11]): 1008 mg/kg
renal toxicity [12]: showed renal toxicity
nephrosis, single dose s.c. (rats [13]; 0.100 g/kg): 0.100 no changes
nephrosis, single dose s.c. (rats [13]; 1.000 g/kg): 1.000 changes seen
ototoxicity (animal studies): did not show ototoxicity
Solubility in water [4]: 130 to 145 mg/mL
apoptotic cell death (human keratinocytes): not apoptotic
phospholipids released (erythrocytes; 10 mM): 30%
release of phospholipids on increasing concentration (erythrocytes; above 10 mM): does not increase release of phospholipids
cholesterol extraction (erythrocytes): negligible even at hemolytic concentrations
excretion [14]: excreted almost completely in an intact form into the urine
tolerance by human erythrocytes (human erythrocytes): better then β-CD
hemolytic activity (human erythrocytes; human erythrocytes, listed as α-CD): β-CD>α-CD>γ-CD; also recorded: lower than that of both β-CD and HP-β-CD
Transport across BBB (BBB; 0.5 mM): 21.5%
Transport across BBB (BBB; 1 mM): 16.5%
BBB breakdown (BBB): 1 mM
toxicity in the BBB model, comparison of CDs (BBB): most toxic among the three native CDs
acute i.v. toxicity in rats (rats [7]): 0.5 to 0.8 g/kg
tolerability in eye-drops [15]: well tolerated
